Results taken from patent publication US20230104487A1, “11-(4-CHLOROPHENYL)-4-(2,3-DIHYDRO-1H-INDOLE-1-CARBONYL)-3,11-DIMETHYL-5,10,DIOXATRICYCLO[7.4.0.0,2,6,]TRIDECA-1,3,6,8-TETRAEN-13-ONE AND DERIVATIVES AS DESTABILIZER OF CRY1 FOR THE TREATMENT OF CIRCADIAN RHYTHM ASSOCIATED DISEASES AND DISORDERS” (KOC UNIVERSITESI, priority 2019, published 2023).

Molecular target: T1, CRY1-T5 (PHR domain of CRY1) (Mus musculus, UniProt P97784)
T1 construct: CRY1-T5 (the lack of 100 amino acids from C-terminal end); expressed in transfected cells; host or cells: HEK293T (lysate)
T1 sequence (P97784 1-506 limits assumed): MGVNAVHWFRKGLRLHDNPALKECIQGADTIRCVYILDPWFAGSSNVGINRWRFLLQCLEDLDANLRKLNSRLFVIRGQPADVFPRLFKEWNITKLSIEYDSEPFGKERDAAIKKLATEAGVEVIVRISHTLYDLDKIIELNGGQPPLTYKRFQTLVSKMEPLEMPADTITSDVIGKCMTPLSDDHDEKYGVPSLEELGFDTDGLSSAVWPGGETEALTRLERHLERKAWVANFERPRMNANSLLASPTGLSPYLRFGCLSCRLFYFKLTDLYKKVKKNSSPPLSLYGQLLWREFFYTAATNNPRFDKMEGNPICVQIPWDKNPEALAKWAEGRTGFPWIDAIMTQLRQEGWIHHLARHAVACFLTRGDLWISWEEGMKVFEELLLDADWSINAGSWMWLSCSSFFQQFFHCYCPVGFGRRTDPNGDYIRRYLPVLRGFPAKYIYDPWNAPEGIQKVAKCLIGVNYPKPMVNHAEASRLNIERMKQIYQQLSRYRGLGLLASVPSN
Assay: Pull-down assay with biotinylated molecule, CRY1-T5
Assay type: binding
Conditions: CRY1 lacking 100 C-terminal amino acids
Protocol: 10 μg of Cry1-pcDNA4, Cry2-pcDNA4 or Cry1-T5-pcDNA4 plasmids expressing His and Myc at the C-terminal of CRYs were transfected to HEK293T cell. After 48 h of transfection cells were harvested and lysed in lysis buffer (50 mM Tris pH 7.4, 2 mM EDTA, 1 mM MgCl2, 0.2% NP-40 (v/v), 0.1% sodium deoxycholate (w/v), 1 mM sodium orthovanadate, 1 mM sodium fluoride, and protease inhibitor cocktail (Thermo Scientific)). Lysates were incubated for 10 minutes on ice then mixed gently and incubated for another 10 minutes on ice. Then lysate was centrifuged for 10 minutes at 7000 g at 4° C. 5% of the supernatant was kept for input analysis. Remaining supernatant was divided to three and mixed with 2×binding buffer (100 mM Tris-HCl pH 7.4, 300 mM NaCl, 0.2% NP-40 (v/v), 2 mM sodium orthovanadate, 2 mM sodium fluoride, and protease inhibitor) with 1:1 ratio, incubated with rotation having either of these: a) DMSO, b) biotinylated molecule, c) biotinylated molecule and the competitor for 2 h. During this period NeutrAvidin Agarose resin (Thermo Scientific) was equilibrated with lysis buffer by mixing for 5 minutes via rotation at 4° C. three times. After each mix period, resins were centrifuged at 2500 g at 4° C. for 2 minutes and supernatant was discarded. […] Pulled-down samples were analyzed via western blot.

Cc1c(C(=O)N2CCc3ccccc32)oc2ccc3c(c12)C(=O)CC(C)(c1ccc(Cl)cc1)O3 (stereo not shown) [FORMULA I, 11-(4-chlorophenyl)-4-(2,3-dihydro-1H-indole-1-carbonyl)-3,11-dimethyl-5,10,dioxatricyclo[7.4.0.0,2,6,]trideca-1,3,6,8-tetraen-13-one]
binding to PHR domain (CRY1-T5 pull-down): bound to the PHR domain
